Consider two molecules from patent publication US11571405B2, “Compositions for improving sexual function” (INXO A/S, priority 2018, dated 2023).

SMILES strings stand for the structures.

The conditions of data set [1]: oral; cited from earlier work.
Data set [2] is described as follows: Inventors' findings on amounts of L-arginine and L-citrulline in the unit dosage. Type of data set: in vivo. The source says: Furthermore, higher amounts of L-arginine worsened the organoleptic properties of the unit dosage.
In an embodiment of the invention, the unit dosage comprises L-citrulline or a physiologically acceptable salt or hydrate thereof in the range from 0.5-3.0 g, such as 0.5-2.9 g, preferably 0.5-2.8 g, more preferably 0.5-2.7 g, such as 0.7-2.0 g, preferably 0.9-2.0 g, more preferably 1.1-2.0 g, even more preferably 1.3-2.0 g, most preferably 1.5-2.0 g.

Turning to `N=C(N)NCCC[C@H](N)C(=O)O` [L-arginine], the “level above which some adverse effects, most commonly diarrhea, have been seen” value in data set [1] was “above 20 g per day”. Besides, in data set [2], the “amount above which side effects occurred in some instances (e.g. stomachache)” value is “above 10 g” and the “most efficacious amount in the unit dosage” value turned out to be 6.0 g.
Turning to `NC(=O)NCCC[C@H](N)C(=O)O` [L-citrulline], the “amount above which efficacy of a unit dosage was not improved further (plateau of efficacy)” value in data set [2] is “above 2.0 g”.
